Earlier results as cited in patent US9642862B2, “Methods for treating chronic or unresolvable pain and/or increasing the pain threshold in a subject and pharmaceutical compositions for use therein” (White Mountain Pharma, Inc., priority 2010, dated 2017).

Experiments:
rats = details: formalin test, treatment with testosterone
chronic pain subjects = details: four subjects, adjunctive to primary opioid therapy, anecdotal
[1] = system: female-to-male transsexuals; details: doses at or above the male reference range
[2] = system: ovariectomized female rats

| Compound | pain responses (rats) | quality of life (chronic pain subjects) | side effects [1] | spinal cord enkephalin transcription [2] |
| --- | --- | --- | --- | --- |
| C[C@]12CC[C@H]3[C@@H](CCC4=CC(=O)CC[C@@]43C)[C@@H]1CC[C@@H]2O [testosterone] | decreased | improved | develop hirsutism and male-like increased risk for cardiovascular disease and diabetes |  |
| estrogen |  |  |  | increase |
